Earlier results on 1 molecule are cited in article PMC13566764 (International Journal of Molecular Sciences, 2026).

In general, pKa refers to the pH at which an ionisable group is half protonated.

Each structure is given as a SMILES string.

On the set-up of this data set: method as in https://pubchem.ncbi.nlm.nih.gov. Conditions: ref https://pubchem.ncbi.nlm.nih.gov.

For `O=C1NC(=O)C(c2ccccc2)(c2ccccc2)N1` [Phenytoin, phenytoin], the pKa is listed as 8.33.
